Data from ChEMBL document CHEMBL1201862, “PubChem BioAssay data set” (2004).
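1) Cells in 96-well plates. 2) Compound, 48 h, 5 concentrations. 3) Linear interpolation between surrounding doses. 4) Unreached endpoint = highest concentration. GI50: concentration for 50% inhibition of growth.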 Activity calls are given as the source filed them. Cut-off read from the data, not from the text of the source: active = GI50 up to about 1.1 µM and inactive = higher.

How the values were obtained:
Assay in all cases: NCI anticancer screen, dose series, 48 h
786-0 = tested on: 786-0
A498 = tested on: A498
CAKI-1 = tested on: CAKI-1
HCT-116 = tested on: HCT-116
HOP-18 = tested on: HOP-18
HOP-62 = tested on: HOP-62
K562 = tested on: K562
KM12 = tested on: KM12
LOX IMVI = tested on: LOX IMVI
LXFL 529 = tested on: LXFL 529
M14 = tested on: M14
OVCAR-4 = tested on: OVCAR-4
SF-295 = tested on: SF-295
SK-OV-3 = tested on: SK-OV-3
SN12C = tested on: SN12C
SNB-19 = tested on: SNB-19
SR = tested on: SR
UACC-257 = tested on: UACC-257
BT-549 = tested on: BT-549

Measured: GI50

C[C@H]1C(=O)CC[C@]2(C)CCC(C(C)(C)O)CC12O (stereo not given in full)
inactive: 786-0 > 100 µM | A498 > 100 µM | CAKI-1 > 100 µM | HCT-116 > 100 µM | HOP-18 > 100 µM | HOP-62 > 100 µM | K562 > 100 µM | KM12 > 100 µM | LOX IMVI > 100 µM | LXFL 529 > 100 µM | M14 > 100 µM | OVCAR-4 > 100 µM | SF-295 > 100 µM | SK-OV-3 > 100 µM | SN12C > 100 µM | SNB-19 > 100 µM | SR > 100 µM | UACC-257 > 100 µM

CN(C(=O)C12C3C4C5C3C1(C(=O)C13C6C7C8C6C1C8C73)C5C42)C(C)(C)C (stereo not given)
inactive: 786-0 > 50 µM | A498 > 50 µM | CAKI-1 > 50 µM | HCT-116 9.55 µM | HOP-18 > 50 µM | HOP-62 > 50 µM | K562 > 25.6 µM | KM12 > 50 µM | LOX IMVI > 21 µM | LXFL 529 > 50 µM | M14 > 50 µM | OVCAR-4 > 50 µM | SF-295 > 50 µM | SK-OV-3 > 50 µM | SN12C > 50 µM | SNB-19 > 50 µM | SR > 50 µM | UACC-257 > 50 µM

CCC(C)OC(=O)C1C2CCC(O2)C1C(=O)O (stereo not given)
inactive: 786-0 > 44.2 µM | A498 > 47.3 µM | CAKI-1 > 100 µM | HCT-116 > 40.6 µM | HOP-18 > 100 µM | HOP-62 > 100 µM | K562 > 100 µM | KM12 > 100 µM | LOX IMVI > 41.9 µM | LXFL 529 > 62.7 µM | M14 > 100 µM | OVCAR-4 > 100 µM | SF-295 > 100 µM | SK-OV-3 > 100 µM | SN12C > 100 µM | SNB-19 > 100 µM | SR 19.2 µM | UACC-257 > 70.5 µM

N#CSCc1nc2ccc(Cl)cc2c(-c2ccccc2)[n+]1[O-]
inactive: 786-0 18.2 µM | A498 > 100 µM | CAKI-1 25.8 µM | HCT-116 19.7 µM | HOP-18 19.5 µM | HOP-62 > 100 µM | K562 25.7 µM | KM12 22 µM | LOX IMVI 18 µM | LXFL 529 13.9 µM | M14 21.9 µM | OVCAR-4 25.5 µM | SF-295 35.2 µM | SN12C 20 µM | SNB-19 41.6 µM | SR 24.9 µM | UACC-257 42.3 µM

COc1ccc(/C=C/c2cc(OC)c(OC)c(OC)c2)cc1OC
inactive: 786-0 > 76.9 µM | A498 > 74.1 µM | CAKI-1 > 83.6 µM | HCT-116 > 100 µM | HOP-18 > 100 µM | HOP-62 44 µM | K562 > 100 µM | KM12 > 100 µM | LOX IMVI > 100 µM | LXFL 529 78.9 µM | M14 > 100 µM | OVCAR-4 > 100 µM | SF-295 65.2 µM | SK-OV-3 > 100 µM | SN12C > 100 µM | SNB-19 > 100 µM | SR > 100 µM | UACC-257 > 100 µM

c1ccc2c(c1)N=C(c1cccc3ccccc13)CC(c1cccc3ccccc13)S2 (stereo not given)
inactive: 786-0 3.8 µM | A498 7.94 µM | CAKI-1 4.43 µM | HCT-116 3.19 µM | HOP-18 5.57 µM | HOP-62 9.14 µM | K562 2.49 µM | KM12 2.91 µM | LOX IMVI 3.48 µM | LXFL 529 3.27 µM | M14 13.2 µM | OVCAR-4 3.68 µM | SF-295 9.77 µM | SK-OV-3 10.3 µM | SN12C 4.79 µM | SNB-19 4.33 µM | SR 2.07 µM | UACC-257 14.7 µM

COC(=O)CC1C(=O)OCc2c1cc1n(c2=O)Cc2c-1nc1ccccc1c2OC (stereo not given)
inactive: 786-0 37.3 µM | A498 > 100 µM | CAKI-1 4.51 µM | HCT-116 13.4 µM | HOP-18 64.7 µM | HOP-62 11 µM | K562 84.1 µM | LOX IMVI 22.5 µM | LXFL 529 > 100 µM | M14 18 µM | OVCAR-4 > 100 µM | SK-OV-3 54.5 µM | SN12C 41.4 µM | SNB-19 37 µM | SR 6.05 µM | UACC-257 > 100 µM

O=C1CC(O)C=C1Nc1ccc(Cl)cc1 (stereo not given)
inactive: 786-0 58.2 µM | A498 13.8 µM | CAKI-1 10.5 µM | HCT-116 30.6 µM | HOP-18 29.4 µM | HOP-62 79.6 µM | K562 4.4 µM | KM12 13.4 µM | LOX IMVI 25.4 µM | LXFL 529 6.76 µM | M14 10.3 µM | OVCAR-4 60.1 µM | SF-295 33.1 µM | SK-OV-3 > 100 µM | SN12C 62.5 µM | SNB-19 80.7 µM | SR 19.1 µM | UACC-257 52.4 µM

CCOC(=O)c1c(CN2CCNCC2)nc2ccc(Cl)cc2c1-c1ccccc1
inactive: 786-0 1.65 µM | A498 7.26 µM | BT-549 13.1 µM | CAKI-1 2.47 µM | HCT-116 3.07 µM | HOP-18 1.79 µM | HOP-62 6.95 µM | K562 2.14 µM | KM12 3.44 µM | LOX IMVI 1.85 µM | LXFL 529 1.74 µM | M14 1.81 µM | OVCAR-4 3.72 µM | SF-295 2.24 µM | SK-OV-3 6.93 µM | SN12C 4.92 µM | SNB-19 12.8 µM | SR 1.78 µM | UACC-257 1.81 µM
